# In patent US8324247B2, “Method for treating pulmonary arterial hypertension” (Ventrus Biosciences, Inc., priority 2009, dated 2012):
# Test system: acute hypoxia-induced pulmonary hypertension
# Experiment: Acute hypoxia-induced pulmonary hypertension in rats (mean pulmonary arterial pressure)
# Format: in vivo, rat
# Protocol: Measurement of Pulmonary and Systemic Arterial Pressure
# Male Sprague-Dawley rats were obtained from Charles River Breeding Laboratories (Wilmington, Mass.) at 9-10 wk of age. For pulmonary arterial pressure measurement, a closed-chest technique (1-4). Under ketamine (80 mg/kg) and xylazine (5 mg/kg) anesthesia, a small transverse cut was made in the proximal right external jugular vein through passed. The introducer was a blunted 7.5 cm, 19-gauge needle with the tip turned up 30 degrees. The Silastic catheter filled with heparinsaline solution was passed through the introducer and attached by a 25 gauge blunted needle to a pressure transducer (model CP-01, Century Technology, Inglewood, Calif.) coupled to a polygraph (model 7, Grass Instruments, Quincy, Mass.). After the introducer was placed in the right ventricular cavity, the tip was directed anteriorly. The catheter was then advanced into the pulmonary artery. Catheter position was identified by the pressure tracing. The introducer was slipped out over the catheter and removed after a typical pulmonary arterial pressure tracing was recorded. […] One day after catheterization, mean pulmonary arterial pressure (MPAP), mean systemic arterial pressure (MSAP) were recorded through the pulmonary and femora arterial catheters via transducers coupled to the polygraph. […]
smiles,measurement,setting,value
"CN1CCCC[C@H]1CCc1ccccc1NC(=O)/C=C/c1ccccc1 [Iferanserin, S-2′-[2-(1-methyl-2-piperidyl)ethyl] cinnamanilide]",effect on acute hypoxia-induced pulmonary hypertension,"adult male Sprague-Dawley rats, 3 and 10 mg/kg p.o., given 45 min before normobaric hypoxia (10% O2) for 90 min",partially inhibited
same,dose dependence of the effect on acute hypoxia-induced pulmonary hypertension,"adult rats, within the range of 3-10 mg/kg, p.o.",no dose-dependent response
